Measurements taken from patent US20230322812A1, “CRYSTALLINE FORM OF HETEROBICYCLIC COMPOUND” (TAIHO PHARMACEUTICAL CO., LTD., priority 2020, published 2023).

Columns and labels:
[1] = Solid stability of crystal I (storage, chemical purity by HPLC); assay type: physicochemical; settings: stored at 40° C. (humidity not controlled), 40° C. (humidity 75%) and 60° C. (humidity not controlled) for 4 weeks, all conditions
Procedure: (iii) High-Performance Liquid Chromatography
Measurement by high-performance liquid chromatography was performed under the following conditions.
Mobile Phase A: 10 mM phos. Buffer (pH6.3)/acetonitrile (95:5)
Mobile Phase B: acetonitrile
Column: Gemini C18 (4.6x 150 mm, 3 μm)/Phenomenex
(§1) Crystal I of compound 1 was stored at 40° C. (humidity is not controlled), 40° C. (humidity 75%), and 60° C. (humidity is not controlled) for 4 weeks. Thereafter, the chemical purity was measured by high-performance liquid chromatography, and the change was 0.5% or less under all conditions.

[2] = Differential scanning calorimetry (phase transition on heating); assay type: physicochemical; settings: crystal I of Example 1; temperature increased
Procedure: (ii) Differential Scanning calorimetry Measurement (DSC Measurement)
DSC measurement was performed under the following conditions.
Device: METTLER TOLEDO: DSC1 STAR System
Sample Container: made of aluminum
Temperature Range: 25 to 400° C.
Temperature Increase Rate: 10° C./min
Atmospheric Gas: Nitrogen
Nitrogen Gas Flow: 30 ml/min
as §1

[3] = Oral absorbability in rats (plasma concentration of compound 1); assay type: in vivo; settings: 30 mg/kg, male Sprague Dawley rats
Procedure: Crystal I of compound 1 was suspended in a 0.5% HPMC aqueous solution, and orally administered to male Sprague Dawley rats which were supplied from Charles River Laboratories Japan, Inc. in a dosage of 30 mg/kg. After 1, 2, 4, 6, 8, and 24 hours from administration, blood of each rat was collected from the left jugular vein, and the concentration of compound 1 in plasma was measured.

[4] = Dynamic vapor sorption (DVS) system analysis; assay type: physicochemical
Procedure: Dynamic vapor sorption (DVS) system analysis was performed under the following conditions.
Apparatus: VTI SA+(manufactured by TA Instruments Inc.)
Drying temperature: 60° C.
Drying equilibrium: Within the range not exceeding 300 minutes, the sample was confirmed not to decrease by 0.01 wt % in 5 minutes
Measurement temperature: 25° C.
Humidification equilibrium: Within the range not exceeding 120 minutes, the sample was confirmed not to increase by 0.01 wt % in 5 minutes
Relative Humidity Program: An increase by 5% RH from 5% RH to 95% RH and a decrease by 5% RH from 95% RH to 5% RH
A dedicated quartz holder was filled with 10 to 15 mg of crystal I of compound 1, and the weight of each sample at each humidity was continuously measured and recorded under the conditions described above. The device and data processing were handled in accordance with the method and procedure instructed for each device.

## Cn1nc2ccc(-c3c[nH]c4nc(N5[C@H]6CC[C@@H]5[C@H](N)C6)n(C)c(=O)c34)c(Cl)c2c1Cl (single isomer, unassigned) [Crystal I]
[1]
  change of chemical purity after storage: ≤ 0.5%
[2]
  phase transition peak in DSC measurement: no peak indicating a phase transition
[3]; 1-24 hours after administration
  oral absorbability (plasma concentration reached): achieved a sufficient concentration that provides a medicinal effect
[3]; rat, suspended in 0.5% HPMC aqueous solution, plasma
  Cmax: 3.5 µM
[3]; rat, suspended in 0.5% HPMC aqueous solution, plasma, read-out: AUC0-24
  AUC(0-t): 37 µM·h
[4]; 25° C., 5% RH to 95% RH and back to 5% RH
  change in weight due to changes in humidity (DVS): no changes in weight
[4]; before and after DVS moisture adsorption and desorption
  powder X-ray crystal analysis before and after moisture adsorption and desorption: did not change
